{
  "source": "paper PMC12481576",
  "about": "“Barbituric Acid Derivatives as Covalent Inhibitors of Leishmania braziliensis Dihydroorotate Dehydrogenase” (Journal of Medicinal Chemistry, 2025)",
  "key": {"HsDHODH": {"molecular_target": "T1, HsDHODH (Homo sapiens, UniProt Q02127)", "T1 construct": "made in house", "T1 sequence (Q02127 whole entry)": "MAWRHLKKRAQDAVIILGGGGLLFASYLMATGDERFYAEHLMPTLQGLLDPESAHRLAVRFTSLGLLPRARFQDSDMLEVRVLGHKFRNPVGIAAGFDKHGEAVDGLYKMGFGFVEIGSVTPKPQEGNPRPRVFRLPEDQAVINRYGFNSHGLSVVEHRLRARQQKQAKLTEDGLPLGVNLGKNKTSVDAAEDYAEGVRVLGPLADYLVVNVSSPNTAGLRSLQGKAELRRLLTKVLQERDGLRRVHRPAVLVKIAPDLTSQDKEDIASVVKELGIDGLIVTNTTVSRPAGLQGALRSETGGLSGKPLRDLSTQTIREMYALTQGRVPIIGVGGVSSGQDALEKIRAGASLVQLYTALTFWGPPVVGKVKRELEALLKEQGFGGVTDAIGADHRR", "experiment": "Selectivity assay: HsDHODH single-dose inhibition (DCIP reduction)", "assay_type": "biochemical", "description": "[…]. This finding highlights the potential of barbituric acid derivatives as selective inhibitors of LbDHODH.\nHuman DHODH expression and purification were conducted following a protocol previously established in our laboratory. The purification was carried out by affinity chromatography on a Ni-NTA Agarose column (Qiagen[…] Cat. No. 30210). […] The reaction was performed in triplicate, initiated by adding 195 μL of reaction buffer to 5 μL of HsDHODH protein solution for a final concentration of 20 nM enzyme. As a blank, 195 μL of reaction buffer was added to 5 μL of Buffer A. The reaction was monitored at 610 nm every 3 s over 60 s. As a control, 5 μL of enzyme was added to 195 μL of reaction medium without compound. Enzymatic velocity was calculated, and the percentage of relative enzymatic activity was determined relative to the control."}, "[1]": {"system": "Leishmania braziliensis promastigotes", "experiment": "Leishmanicidal activity, promastigote growth (SYBR Green, 72 h)", "assay_type": "cell-based, Leishmania (V.) braziliensis (MHOM/BR/1975/M2904)", "settings": "Leishmania braziliensis, L. braziliensis promastigotes, max 200 μM", "description": "The cultures were adjusted to 4 × 10^6 parasites per mL, and 50 μL of each culture was added on a test plate with 384 wells (Corning, #CLS3658), along with the controls and compounds to be tested. Previously diluted compounds in DMSO were added to plates in decreasing concentrations, with a maximum concentration of 200 μM. Parasites were exposed to a final concentration of DMSO in various dilutes (final = 0.5%), and the culture medium was used as the control for the experiment. […] After adding the lysis buffer, the plates were incubated in the dark for 2 h with gentle shaking. The readings were done using a SpectraMax M3 reader (excitation at 485 nm and emission at 535 nm)."}, "[2]": {"experiment": "Cell viability / cytotoxicity assay (PrestoBlue, 72 h)", "assay_type": "cell-based", "settings": "human", "description": "THP-1 cells (American Type Cell Collection, #TIB-202) were acquired in 2019 and stored frozen in liquid nitrogen. The cells were then maintained in RPMI 1640 (Thermo Fisher Scientific, #S31800–022) at 37 °C in a 5% CO2 atmosphere and routinely tested for Mycoplasma contamination by PCR using the primers 5′-[…] and 5′-[…]. To test the toxicity of compounds, 5000 cells were added to 96-well plates with a final volume of 80 μL centrifuged at 400g for 2 min and incubated with 150 ng/mL of phorbol myristate acetate (Merck, #P8139) for 48 h. The medium was replaced, and after 24 h, the compounds were added and tested at decreasing concentrations starting from 200 μM (10 μL/well). After 72 h of incubation, 10 μL of PrestoBlue Cell Viability Reagent (Thermo Fisher Scientific, #A13262) was added per well. After adding the reagent, the cells were incubated for 2 h at 37 °C in a 5% CO2 atmosphere, and fluorescence readings were performed using the SpectraMax M3 reader (excitation at 560 nm and emission at 590 nm)."}, "LbDHODH": {"molecular_target": "LbDHODH (Leishmania braziliensis, UniProt E9AI53)", "sequence (E9AI53 entry or part of it)": "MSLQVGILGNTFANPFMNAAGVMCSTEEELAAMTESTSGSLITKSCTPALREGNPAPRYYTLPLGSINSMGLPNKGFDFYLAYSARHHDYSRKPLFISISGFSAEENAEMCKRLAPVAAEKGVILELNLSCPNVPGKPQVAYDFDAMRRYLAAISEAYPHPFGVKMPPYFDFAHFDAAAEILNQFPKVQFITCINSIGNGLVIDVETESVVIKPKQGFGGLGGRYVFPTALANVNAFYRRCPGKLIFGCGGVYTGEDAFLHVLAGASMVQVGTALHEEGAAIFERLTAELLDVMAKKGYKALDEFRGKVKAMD", "experiment": "biochemical", "settings": "for IC50: LbDHODH", "description": "To assess the ability of compounds 2a–2i to inhibit LbDHODH via covalent bond formation with Cys^131, we initially screened them at a concentration of 100 μM under two conditions: with and without a 4-h preincubation with the enzyme.\nThe experiments were performed in a 96-well microplate reader (SpectraMax Plus 384, Molecular Devices, USA), containing the […] of the buffer 60 mM DCIP, 50 mM Tris pH 8.15, 150 mM KCl, 0.1% Triton X-100, 50 μM DHO and 10 μM of LbDHODH at 165 nM. The reaction was monitored every 3 s at 610 nm over a period of 60 s, in triplicate, for the control and each concentration of the inhibitor. All assays were performed without incubation (0h) and with 4-h preincubation of the inhibitor with LbDHODH, using 5% DMSO (v/v) as control. […]. […] The resulting kobs values were plotted as a function of inhibitor concentration, and the data in the initial linear region was fit to determine the slope, which is kinact/KI. All regressions were performed with GraphPad Prism 9."}, "[3]": {"settings": "read-out: Single dose (0h) % activity"}, "[4]": {"settings": "read-out: Single dose (4h) % activity"}, "[5]": {"settings": "THP-1 cell line, 72 h, max 200 μM, read-out: CC50"}, "[6]": {"settings": "0 h, pH 8.15, read-out: LbDHODH Activity±SD (%)"}, "[7]": {"settings": "4 h, pH 8.15, read-out: LbDHODH Activity±SD (%)"}, "[8]": {"settings": "IC50 0 h, without preincubation"}},
  "note": "Like-named read-outs stand apart in the source and are kept apart here.",
  "data": [
    {"smiles": "O=C1NC(=O)C(=Cc2ccc(C(=O)O)cc2)C(=O)N1", "note": "[2b, 4-((2,4,6-Trioxotetrahydropyrimidin-5(2H)-ylidene)methyl)benzoic Acid]", "values": [
      {"measurement": "activity at 100 µM", "setting": "HsDHODH; [3]", "value": "105 ± 12", "unit": "%"},
      {"measurement": "activity at 100 µM", "setting": "HsDHODH; [4]", "value": "99 ± 10", "unit": "%"},
      {"measurement": "EC50", "setting": "[1]", "value": "> 200", "unit": "µM"},
      {"measurement": "CC50 at 72 h", "setting": "[2]; [5]", "value": "> 200", "unit": "µM"},
      {"measurement": "activity at 0.195312 µM", "setting": "LbDHODH; [6]", "value": "98 ± 18", "unit": "%"},
      {"measurement": "activity at 0.390625 µM", "setting": "LbDHODH; [6]", "value": "96 ± 9", "unit": "%"},
      {"measurement": "activity at 0.78125 µM", "setting": "LbDHODH; [6]", "value": "100 ± 8", "unit": "%"},
      {"measurement": "activity at 1.5625 µM", "setting": "LbDHODH; [6]", "value": "96 ± 7", "unit": "%"},
      {"measurement": "activity at 3.125 µM", "setting": "LbDHODH; [6]", "value": "97 ± 7", "unit": "%"},
      {"measurement": "activity at 6.25 µM", "setting": "LbDHODH; [6]", "value": "94 ± 18", "unit": "%"},
      {"measurement": "activity at 12.5 µM", "setting": "LbDHODH; [6]", "value": "97 ± 10", "unit": "%"},
      {"measurement": "activity at 25 µM", "setting": "LbDHODH; [6]", "value": "72 ± 10", "unit": "%"},
      {"measurement": "activity at 50 µM", "setting": "LbDHODH; [6]", "value": "72 ± 6", "unit": "%"},
      {"measurement": "activity at 100 µM", "setting": "LbDHODH; [6]", "value": "65 ± 5", "unit": "%"},
      {"measurement": "activity at 200 µM", "setting": "LbDHODH; [6]", "value": "60 ± 22", "unit": "%"},
      {"measurement": "activity at 400 µM", "setting": "LbDHODH; [6]", "value": "86 ± 18", "unit": "%"},
      {"measurement": "activity at 0.195312 µM", "setting": "LbDHODH; [7]", "value": "94 ± 11", "unit": "%"},
      {"measurement": "activity at 0.390625 µM", "setting": "LbDHODH; [7]", "value": "99 ± 11", "unit": "%"},
      {"measurement": "activity at 0.78125 µM", "setting": "LbDHODH; [7]", "value": "91 ± 20", "unit": "%"},
      {"measurement": "activity at 1.5625 µM", "setting": "LbDHODH; [7]", "value": "80 ± 8", "unit": "%"},
      {"measurement": "activity at 3.125 µM", "setting": "LbDHODH; [7]", "value": "90 ± 6", "unit": "%"},
      {"measurement": "activity at 6.25 µM", "setting": "LbDHODH; [7]", "value": "83 ± 13", "unit": "%"},
      {"measurement": "activity at 12.5 µM", "setting": "LbDHODH; [7]", "value": "65 ± 4", "unit": "%"},
      {"measurement": "activity at 25 µM", "setting": "LbDHODH; [7]", "value": "66 ± 4", "unit": "%"},
      {"measurement": "activity at 50 µM", "setting": "LbDHODH; [7]", "value": "29 ± 5", "unit": "%"},
      {"measurement": "activity at 100 µM", "setting": "LbDHODH; [7]", "value": "15 ± 1", "unit": "%"},
      {"measurement": "activity at 200 µM", "setting": "LbDHODH; [7]", "value": "13 ± 6", "unit": "%"},
      {"measurement": "activity at 400 µM", "setting": "LbDHODH; [7]", "value": "7 ± 2", "unit": "%"},
      {"measurement": "IC50", "setting": "LbDHODH; [8]", "value": "> 100", "unit": "µM"},
      {"measurement": "IC50", "setting": "LbDHODH; IC50 4 h, 4-h preincubation", "value": "22 ± 1", "unit": "µM"},
      {"measurement": "activity at 100 µM", "setting": "LbDHODH; [3]", "value": "70 ± 10", "unit": "%"},
      {"measurement": "activity at 100 µM", "setting": "LbDHODH; [4]", "value": "10 ± 2", "unit": "%"},
      {"measurement": "inhibition at 100 µM", "setting": "LbDHODH; read-out: enzyme inhibition", "value": "90 to 93", "unit": "%"}
    ]},
    {"smiles": "O=C1NC(=O)C(Cc2ccccc2)C(=O)N1", "note": "[3a, 5-Benzylpyrimidine-2,4,6(1H,3H,5H)-trione]", "values": [
      {"measurement": "activity at 100 µM", "setting": "HsDHODH; [3]", "value": "109 ± 12", "unit": "%"},
      {"measurement": "activity at 100 µM", "setting": "HsDHODH; [4]", "value": "97 ± 9", "unit": "%"},
      {"measurement": "EC50", "setting": "[1]", "value": "> 200", "unit": "µM"},
      {"measurement": "CC50 at 72 h", "setting": "[2]; [5]", "value": "> 200", "unit": "µM"},
      {"measurement": "IC50", "setting": "LbDHODH; [8]", "value": "> 100", "unit": "µM"},
      {"measurement": "IC50", "setting": "LbDHODH; IC50 4 h, 4-h preincubation", "value": "> 100", "unit": "µM"},
      {"measurement": "activity at 100 µM", "setting": "LbDHODH; [3]", "value": "90 ± 10", "unit": "%"},
      {"measurement": "activity at 100 µM", "setting": "LbDHODH; [4]", "value": "70 ± 8", "unit": "%"}
    ]},
    {"smiles": "O=C1NC(=O)C(Cc2ccc(C(=O)O)cc2)C(=O)N1", "note": "[3b, 4-((2,4,6-Trioxohexahydropyrimidin-5-yl)methyl)benzoic Acid]", "values": [
      {"measurement": "activity at 100 µM", "setting": "HsDHODH; [3]", "value": "92 ± 10", "unit": "%"},
      {"measurement": "activity at 100 µM", "setting": "HsDHODH; [4]", "value": "83 ± 8", "unit": "%"},
      {"measurement": "EC50", "setting": "[1]", "value": "> 200", "unit": "µM"},
      {"measurement": "CC50 at 72 h", "setting": "[2]; [5]", "value": "> 200", "unit": "µM"},
      {"measurement": "IC50", "setting": "LbDHODH; [8]", "value": "> 100", "unit": "µM"},
      {"measurement": "IC50", "setting": "LbDHODH; IC50 4 h, 4-h preincubation", "value": "> 100", "unit": "µM"},
      {"measurement": "activity at 100 µM", "setting": "LbDHODH; [3]", "value": "109 ± 3", "unit": "%"},
      {"measurement": "activity at 100 µM", "setting": "LbDHODH; [4]", "value": "69 ± 2", "unit": "%"}
    ]},
    {"smiles": "C[C@@H]1[C@H](O)[C@@H](C)/C=C/C=C/C=C/C=C/C=C/C=C/C=C/[C@H](O[C@@H]2O[C@H](C)[C@@H](O)[C@H](N)[C@@H]2O)C[C@@H]2O[C@](O)(C[C@@H](O)C[C@@H](O)[C@H](O)CC[C@@H](O)C[C@@H](O)CC(=O)O[C@H]1C)C[C@H](O)[C@H]2C(=O)O", "note": "[Amp. B, Amphotericin B, reference compound]", "values": [
      {"measurement": "EC50", "setting": "[1]; read-out: EC50", "value": "0.4 ± 0.3", "unit": "µM"},
      {"measurement": "CC50 at 72 h", "setting": "[2]", "value": "6 ± 2", "unit": "µM"}
    ]}
  ]
}
